Laboratory results: ChEMBL document CHEMBL5136996, “Semisynthesis and Non-Small-Cell Lung Cancer Cytotoxicity Evaluation of Germacrane-Type Sesquiterpene Lactones from Elephantopus scaber” (J Nat Prod, 2022)
The source made the active and inactive calls. No cut-off for these calls is given here.

Legend:
A549 [1] = test: Cytotoxicity against human A549 cells assessed as reduction in cell viability incubated for 48 hrs by MTT assay; type: functional, cell-based; details: A549, 48 h
NCI-H460 = test: Cytotoxicity against human NCI-H460 cells assessed as reduction in cell viability incubated for 48 hrs by MTT assay; type: functional, cell-based; details: NCI-H460, 48 h
[2] = Cytotoxicity against rat Primary hepatocytes assessed as cell viability at 25 uM incubated for 12 hrs; type: toxicity, cell-based, Hepatocyte; details: read-out: Activity
A549 [3] = test: Induction of apoptosis in human A549 cells assessed as viable cells at 10 uM incubated for 48 hrs by AnnexinV-FITC/PI staining based flow cytometry (reference value: 91.5 to 92.9%); type: functional; details: read-out: Activity
A549 [4] = test: Induction of apoptosis in human A549 cells assessed as increase in cleaved caspase-3 expression level at 3 to 10 uM incubated for 48 hrs by western blot analysis; type: functional, cell-based; details: dose 3-10 µM
A549 [5] = test: Induction of cell cycle arrest in human A549 cells assessed as accumulation of cells at G2/M phase incubated for 48 hrs by PI staining based flow cytometry (reference value: 9.7 to 17.2%); type: functional
A549 [6] = test: Induction of apoptosis in human A549 cells assessed as decrease in mitochondrial membrane potential by measuring reduction in ratio of red to green fluorescence intensity at 3 to 10 uM incubated for 48 hrs by JC-1 staining based flow cytometry; type: functional, cell-based; details: dose 3-10 µM
A549 [7] = test: Induction of apoptosis in human A549 cells assessed as late apoptotic cells at 10 uM incubated for 48 hrs by AnnexinV-FITC/PI staining based flow cytometry (reference value: 1.58 to 2.23%); type: functional
A549 [8] = test: Induction of apoptosis in human A549 cells assessed as viable cells at 3 uM incubated for 48 hrs by AnnexinV-FITC/PI staining based flow cytometry (reference value: 91.5 to 92.9%); type: functional; details: read-out: Activity
A549 [9] = test: Induction of apoptosis in human A549 cells assessed as early apoptotic cells at 3 uM incubated for 48 hrs by AnnexinV-FITC/PI staining based flow cytometry (reference value: 2.07 to 3.24%); type: functional
A549 [10] = test: Induction of apoptosis in human A549 cells assessed as late apoptotic cells at 3 uM incubated for 48 hrs by AnnexinV-FITC/PI staining based flow cytometry (reference value: 1.58 to 2.23%); type: functional
A549 [11] = test: Induction of apoptosis in human A549 cells assessed as increase in cleaved caspase-9 expression level at 3 to 10 uM incubated for 48 hrs by western blot analysis; type: functional, cell-based; details: dose 3-10 µM
A549 [12] = test: Induction of intracellular ROS generation in human A549 cells incubated for 48 hrs by H2DCF-DA staining based flow cytometry; type: functional, cell-based; details: dose 3-10 µM, DDE = dose-dependent effect
A549 [13] = test: Induction of apoptosis in human A549 cells assessed as early apoptotic cells at 10 uM incubated for 48 hrs by AnnexinV-FITC/PI staining based flow cytometry (reference value: 2.07 to 3.24%); type: functional
A549 [14] = test: Induction of apoptosis in human A549 cells assessed as necrotic cells at 3 uM incubated for 48 hrs by AnnexinV-FITC/PI staining based flow cytometry (reference value: 2.23 to 4.25%); type: functional
A549 [15] = test: Induction of apoptosis in human A549 cells assessed as necrotic cells at 10 uM incubated for 48 hrs by AnnexinV-FITC/PI staining based flow cytometry (reference value: 2.23 to 4.25%); type: functional

C=C1C(=O)O[C@H]2CC3=C[C@H](C/C(C)=C/[C@@H](OC(=O)CCSSCCC(=O)O[C@@H]4/C=C(\C)C[C@H]5C=C(C[C@@H]6OC(=O)C(=C)[C@H]64)C(=O)O5)[C@H]12)OC3=O
IC50 (A549 [1]): 3.1 µM
IC50 (NCI-H460): 7.8 µM

C=C1C(=O)O[C@H]2CC3=C[C@H](C/C(C)=C/[C@@H](OC(=O)CCCCC)[C@H]12)OC3=O
IC50 (A549 [1]): > 10 µM
IC50 (NCI-H460): 5.9 µM

C=C1C(=O)O[C@H]2CC3=C[C@H](C/C(C)=C/[C@@H](OC(=O)c4ccc(-c5ccccc5)cc4)[C@H]12)OC3=O
IC50 (A549 [1]): 4.6 µM
IC50 (NCI-H460): 3.5 µM

C=C1C(=O)O[C@H]2CC3=C[C@H](C/C(C)=C/[C@@H](OC(=O)/C=C/c4ccncc4)[C@H]12)OC3=O
IC50 (A549 [1]): 4 µM
IC50 (NCI-H460): 2.1 µM

C=C1C(=O)O[C@H]2CC3=C[C@H](C/C(C)=C/[C@@H](OC(=O)CC4CCCCC4)[C@H]12)OC3=O
IC50 (A549 [1]): 6.9 µM
IC50 (NCI-H460): 2 µM

C=C1C(=O)O[C@H]2CC3=C[C@H](C/C(C)=C/[C@@H](OC(=O)/C=C/c4cccc(OC)c4)[C@H]12)OC3=O
IC50 (A549 [1]): 6.2 µM
IC50 (NCI-H460): > 10 µM

C=C1C(=O)O[C@H]2CC3=C[C@H](C/C(C)=C/[C@@H](OC(=O)CCCCCCC(=O)O[C@@H]4/C=C(\C)C[C@H]5C=C(C[C@@H]6OC(=O)C(=C)[C@H]64)C(=O)O5)[C@H]12)OC3=O
viability at 12 h, 25 µM [2]: 59.2%
viability at 10 µM (A549 [3]): 14.6%
Activity (A549 [4]): Active
Activity (A549 [5]): 62.4%
Activity (A549 [6]): Active
Activity (A549 [7]): 44.1%
viability at 3 µM (A549 [8]): 63.7%
Activity (A549 [9]): 35.5%
Activity (A549 [10]): 0.7%
Activity (A549 [11]): Active
Activity (A549 [12]): Dde
Activity (A549 [13]): 30.9%
Activity (A549 [14]): 0.14%
IC50 (A549 [1]): 0.7 µM
Activity (A549 [15]): 10.4%
IC50 (NCI-H460): 3.2 µM

C=C1C(=O)O[C@H]2CC3=C[C@H](C/C(C)=C/[C@@H](OC(=O)c4ccc([N+](=O)[O-])cc4)[C@H]12)OC3=O
IC50 (A549 [1]): > 10 µM
IC50 (NCI-H460): > 10 µM

C=C1C(=O)O[C@@H]2/C=C(\C)C[C@H]3C=C(C[C@H](OC(=O)/C(C)=C\C)[C@@H]12)C(=O)O3
IC50 (A549 [1]): > 10 µM
IC50 (NCI-H460): > 10 µM

C=C1C(=O)O[C@H]2CC3=C[C@H](C/C(C)=C/[C@@H](OC(=O)/C=C/c4ccc5c(c4)OCO5)[C@H]12)OC3=O
IC50 (A549 [1]): 4.6 µM
IC50 (NCI-H460): 9.3 µM

C=C1C(=O)O[C@H]2CC3=C[C@H](C/C(C)=C/[C@@H](OC(=O)CC(C)C)[C@H]12)OC3=O
IC50 (A549 [1]): 2.5 µM
IC50 (NCI-H460): 3.8 µM

C=C1C(=O)O[C@H]2CC3=C[C@H](C/C(C)=C/[C@@H](OC(=O)CCCCC(=O)O[C@@H]4/C=C(\C)C[C@H]5C=C(C[C@@H]6OC(=O)C(=C)[C@H]64)C(=O)O5)[C@H]12)OC3=O
IC50 (A549 [1]): 2.1 µM
IC50 (NCI-H460): 8.1 µM

C=C1C(=O)O[C@H]2CC3=C[C@H](C/C(C)=C/[C@@H](OC(=O)/C=C/c4cccs4)[C@H]12)OC3=O
viability at 12 h, 25 µM [2]: 96.7%
viability at 10 µM (A549 [3]): 38.2%
Activity (A549 [4]): Active
Activity (A549 [5]): 32.6%
Activity (A549 [6]): Active
Activity (A549 [7]): 23.9%
viability at 3 µM (A549 [8]): 83.2%
Activity (A549 [9]): 14.8%
Activity (A549 [10]): 1.45%
Activity (A549 [11]): Active
Activity (A549 [12]): Dde
Activity (A549 [13]): 27.3%
Activity (A549 [14]): 0.53%
IC50 (A549 [1]): 4.3 µM
Activity (A549 [15]): 10.6%
IC50 (NCI-H460): 2.9 µM

C=C1C(=O)O[C@H]2CC3=C[C@H](C/C(C)=C/[C@@H](O)[C@H]12)OC3=O
IC50 (A549 [1]): > 10 µM
IC50 (NCI-H460): > 10 µM

C=C1C(=O)O[C@H]2CC3=C[C@H](C/C(C)=C/[C@@H](OC(=O)c4ccncc4)[C@H]12)OC3=O
IC50 (A549 [1]): > 10 µM
IC50 (NCI-H460): 5.6 µM

C=C1C(=O)O[C@H]2CC3=C[C@H](C/C(C)=C/[C@@H](OC(=O)C4CCC(F)(F)CC4)[C@H]12)OC3=O
IC50 (A549 [1]): 6.4 µM
IC50 (NCI-H460): > 10 µM

C=C1C(=O)O[C@H]2CC3=C[C@H](C/C(C)=C/[C@@H](OC(=O)CCCC(=O)O[C@@H]4/C=C(\C)C[C@H]5C=C(C[C@@H]6OC(=O)C(=C)[C@H]64)C(=O)O5)[C@H]12)OC3=O
IC50 (A549 [1]): 5.6 µM
IC50 (NCI-H460): > 10 µM

C=C1C(=O)O[C@H]2CC3=C[C@H](C/C(C)=C/[C@@H](OC(=O)/C=C/c4ccccc4)[C@H]12)OC3=O
IC50 (A549 [1]): 4.8 µM
IC50 (NCI-H460): > 10 µM

C=C1C(=O)O[C@H]2CC3=C[C@H](C/C(C)=C/[C@@H](OC(=O)c4ccc(C(=O)O[C@@H]5/C=C(\C)C[C@H]6C=C(C[C@@H]7OC(=O)C(=C)[C@H]75)C(=O)O6)cc4)[C@H]12)OC3=O
IC50 (A549 [1]): 1.5 µM
IC50 (NCI-H460): 0.7 µM

C=C1C(=O)O[C@H]2CC3=C[C@H](C/C(C)=C/[C@@H](OC(=O)/C=C/c4ccc(N(C)C)cc4)[C@H]12)OC3=O
IC50 (A549 [1]): > 10 µM
IC50 (NCI-H460): 1.3 µM

C=C1C(=O)O[C@@H]2C3O[C@]3(C)CC/C=C(\C)CC[C@@H]12 (stereo partly specified)
IC50 (A549 [1]): > 10 µM
IC50 (NCI-H460): 9.6 µM

C=C1C(=O)O[C@H]2CC3=C[C@H](C/C(C)=C/[C@@H](OC(=O)CCCCBr)[C@H]12)OC3=O
IC50 (A549 [1]): > 10 µM
IC50 (NCI-H460): > 10 µM

C=C1C(=O)O[C@H]2CC3=C[C@H](C/C(C)=C/[C@@H](OC(=O)C45CCC(C)(C(=O)O4)C5(C)C)[C@H]12)OC3=O
IC50 (A549 [1]): 3.4 µM
IC50 (NCI-H460): 2 µM

C=C1C(=O)O[C@H]2CC3=C[C@H](C/C(C)=C/[C@@H](OC(=O)C4(NC(=O)OCc5ccccc5)CC4)[C@H]12)OC3=O
IC50 (A549 [1]): 5.8 µM
IC50 (NCI-H460): 3 µM

C=C1C(=O)O[C@H]2CC3=C[C@H](C/C(C)=C/[C@@H](OC(=O)c4ccc(C(C)=O)cc4)[C@H]12)OC3=O
IC50 (A549 [1]): 2.3 µM
IC50 (NCI-H460): 2.2 µM

C=C1C(=O)O[C@H]2CC3=C[C@H](C/C(C)=C/[C@@H](OC(=O)/C=C\c4ccc5c(c4)OCO5)[C@H]12)OC3=O
IC50 (A549 [1]): 6.1 µM
IC50 (NCI-H460): > 10 µM

C=C1C(=O)O[C@H]2CC3=C[C@H](C/C(C)=C/[C@@H](OC(=O)c4ccc(C(=O)O[C@@H]5/C=C(\C)C[C@H]6C=C(C[C@@H]7OC(=O)C(=C)[C@H]75)C(=O)O6)s4)[C@H]12)OC3=O
IC50 (A549 [1]): 3.6 µM
IC50 (NCI-H460): 5.8 µM

CO[C@H]1C(=O)O[C@H]2CC3=C[C@H](C/C(C)=C/[C@@H](O)[C@@H]21)OC3=O
IC50 (A549 [1]): > 10 µM
IC50 (NCI-H460): > 10 µM

C=C1C(=O)O[C@H]2CC3=C[C@H](C/C(C)=C/[C@@H](OC(=O)C(C)(C)CC)[C@H]12)OC3=O
IC50 (A549 [1]): 2.2 µM
IC50 (NCI-H460): 6.1 µM

C=C1C(=O)O[C@H]2CC3=C[C@H](C/C(C)=C/[C@@H](OC(=O)/C=C/c4ccc(C(F)(F)F)cc4)[C@H]12)OC3=O
IC50 (A549 [1]): 5.9 µM
IC50 (NCI-H460): 1.4 µM

C=C1C(=O)O[C@H]2CC3=C[C@H](C/C(C)=C/[C@@H](OC(=O)C4CC4)[C@H]12)OC3=O
IC50 (A549 [1]): 3.2 µM
IC50 (NCI-H460): 3 µM

C=C1C(=O)O[C@H]2CC3=C[C@H](C/C(C)=C/[C@@H](OC(=O)c4ccc(C(F)(F)F)cc4)[C@H]12)OC3=O
IC50 (A549 [1]): > 10 µM
IC50 (NCI-H460): > 10 µM

C=C1C(=O)O[C@H]2CC3=C[C@H](C/C(C)=C/[C@@H](OC(=O)CCl)[C@H]12)OC3=O
IC50 (A549 [1]): > 10 µM
IC50 (NCI-H460): > 10 µM

C=C1C(=O)O[C@H]2CC3=C[C@H](C/C(C)=C/[C@@H](OC(=O)CCC(=O)O[C@@H]4/C=C(\C)C[C@H]5C=C(C[C@@H]6OC(=O)C(=C)[C@H]64)C(=O)O5)[C@H]12)OC3=O
IC50 (A549 [1]): > 10 µM
IC50 (NCI-H460): > 10 µM
